These results are taken from paper PMC8027081, “Structural Basis of VSIG3: The Ligand for VISTA” (Frontiers in Immunology, 2021).

Series [1] addresses T1, human VSIG3-ECD (Homo sapiens, UniProt Q5DX21).
T1 construct: gene IGSF11; extracellular domain (IgV + IgC2), signal peptide (22 aa) removed, His-tagged; RED-NHS labelled for MST; dimer in crystal
T1 sequence (Q5DX21 23-241): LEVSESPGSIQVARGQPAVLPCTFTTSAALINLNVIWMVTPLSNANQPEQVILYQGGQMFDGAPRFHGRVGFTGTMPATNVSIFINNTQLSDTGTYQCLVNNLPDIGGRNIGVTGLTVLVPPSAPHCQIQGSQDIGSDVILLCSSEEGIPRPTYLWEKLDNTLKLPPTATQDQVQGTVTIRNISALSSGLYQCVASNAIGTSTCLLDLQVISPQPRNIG
The experiment in a line: microscale thermophoresis. Type of series: binding. To be noted: room temperature, 30 min; RED-NHS labelled protein. Background: Microscale thermophoresis detects binding through changes in fluorescence in a small temperature gradient.

Series [2] concerns the molecule itself. The experiment in a line: crystal structure; hanging drop vapor diffusion, 4°C, 0.1 M sodium citrate tribasic dihydrate pH 5.6, 0.01 M iron(III) chloride, 10% Jeffamine M-600; VSIG3 at 3 mg/mL; 2.64 Å.

With `O=C(CCn1c(SCC(=O)NC2CCCC2)nc2ccccc2c1=O)NC1CCCCC1` [K284-3046], the Kd (in general, the constant that tells how readily two partners part at equilibrium) in series [1] worked out at 11.6 ± 9.12 µM.

B1: human VSIG3 extracellular domain (residues 23-241) expressed in E. coli, refolded (domain or fragment, UniProt Q5DX21 23-241, looked up)
chain: T1 sequence (Q5DX21 23-241)
notes: VSIG3 (IgSF11), human, UniProt Q5DX21, residues 23-241 (extracellular domain without the 22-residue signal peptide); No PDB id is printed; also called VSIG3-ECD; IgSF11; not shown: His tag (from the vector pET28a)
Regarding B1, in series [2], the stoichiometry N (as a rule, the number of molecules, sites or subunits per partner or assembly) is 2.
